# How the values were obtained:
# Format in all cases: cell-based
# [1] = tested on: OCI-Ly19 cells; assay: RT2 Glucocorticoid signaling PCR array, OCI-LY19 (Table 4a, printed OCT) cell line; settings: vs DMSO
# [2] = tested on: OCI-Ly19 cells; assay: as above; settings: vs DMSO; remark: listed apart in the source
# Source text: (§1) Expression levels of (A). Sestrin; (B). TNF and (C) GILZ normalized to DMSO controls for each cell line with the indicated single agent or combination.
# [3] = tested on: RL cells; assay: RT2 Glucocorticoid signaling PCR array, RL (Table 4e, printed RI) cell line; settings: 4 days, Cpd44 1 uM, Pred 10-fold below 4-day IC50, vs DMSO, B2M-normalized
# Source text: as §1
smiles,measurement,setting,value
CCN(c1cc(-c2ccc(CN3CCOCC3)cc2)cc(C(=O)NCc2c(C)cc(C)[nH]c2=O)c1C)C1CCOCC1 [Compound 44],"ΔΔCT, ATF4",[1]; gene ATF4,0.124
same,"ΔΔCT, BCL6",[1]; gene BCL6,−1.395
same,"ΔΔCT, CEBPB",[1]; gene CEBPB,0.390
same,ΔΔCT COL4A2,[1]; gene COL4A2,0.309
same,"ΔΔCT, CREB3L4",[1]; gene CREB3L4,−0.376
same,ΔΔCT CTGF,[1]; gene CTGF,−0.052
same,"ΔΔCT, DDIT4",[1]; gene DDIT4,−0.749
same,"ΔΔCT, DUSP1",[1]; gene DUSP1,−0.395
same,"ΔΔCT, EHD3",[1]; gene EHD3,−1.081
same,"ΔΔCT, FK8PS",[1]; gene FK8PS,−0.319
same,"ΔΔCT, FOSL2",[1]; gene FOSL2,−0.226
same,"ΔΔCT, GDPD1",[1]; gene GDPD1,−0.020
same,ΔΔCT GLUL,[1]; gene GLUL,−0.745
same,"ΔΔCT, H6PD",[1]; gene H6PD,−0.915
same,"ΔΔCT, HNRPLL",[1]; gene HNRPLL,−0.346
same,"ΔΔCT, IL1RN",[1]; gene IL1RN,−1.244
same,"ΔΔCT, KLF9",[1]; gene KLF9,−1.215
same,"ΔΔCT, KLF13",[1]; gene KLF13,−0.452
same,"ΔΔCT, LOX",[1]; gene LOX,−0.733
same,ΔΔCT MERTK,[1]; gene MERTK,−0.805
same,ΔΔCT MTZA,[1]; gene MTZA,−0.118
same,"ΔΔCT, NFKBIA",[1]; gene NFKBIA,0.019
same,"ΔΔCT, NR3C1",[1]; gene NR3C1,−0.023
same,ΔΔCT PDCC7,[1]; gene PDCC7,0.024
same,ΔΔCT PDGFRB,[1]; gene PDGFRB,0.934
same,"ΔΔCT, PDP1",[1]; gene PDP1,−0.518
same,"ΔΔCT, PIK3R1",[1]; gene PIK3R1,−0.274
same,"ΔΔCT, PLEKHF1",[1]; gene PLEKHF1,−0.736
same,"ΔΔCT, POU2F1",[1]; gene POU2F1,−0.120
same,"ΔΔCT, POU2F2",[1]; gene POU2F2,0.031
same,"ΔΔCT, RASA3",[1]; gene RASA3,−0.075
same,"ΔΔCT, RHOB",[1]; gene RHOB,−1.378
same,"ΔΔCT, SESN1",[1]; gene SESN1,−0.253
same,"ΔΔCT, SGK1",[1]; gene SGK1,−0.458
same,"ΔΔCT, SLC10A6",[1]; gene SLC10A6,−1.185
same,"ΔΔCT, SLC19A2",[1]; gene SLC19A2,−0.211
same,"ΔΔCT, SLC22A5",[1]; gene SLC22A5,−0.367
same,"ΔΔCT, SNTA1",[1]; gene SNTA1,−0.908
same,"ΔΔCT, SPHK1",[1]; gene SPHK1,0.016
same,"ΔΔCT, STAT5A",[1]; gene STAT5A,0.113
same,"ΔΔCT, STAT5B",[1]; gene STAT5B,−0.121
same,"ΔΔCT, TNFAIP3",[1]; gene TNFAIP3,0.317
same,"ΔΔCT, TSC22D3",[1]; gene TSC22D3,−0.671
same,"ΔΔCT, USP2",[1]; gene USP2,−2.822
same,"ΔΔCT, USPS4",[1]; gene USPS4,0.165
same,"ΔΔCT, VDR",[1]; gene VDR,−0.553
same,"ΔΔCT, ZFP36",[1]; gene ZFP36,0.427
same,"ΔΔCT, ZHX3",[1]; gene ZHX3,−0.394
same,"ΔΔCT, ZNF281",[1]; gene ZNF281,0.531
same,"ΔΔCT, AFF1",[2]; gene AFF1,−0.008
same,"ΔΔCT, AMPD3",[2]; gene AMPD3,−0.654
same,"ΔΔCT, ANXA4",[2]; gene ANXA4,−0.154
same,"ΔΔCT, CEBPA",[2]; gene CEBPA,−2.891
same,"ΔΔCT, CREB1",[2]; gene CREB1,0.006
same,"ΔΔCT, CREB3",[2]; gene CREB3,0.057
same,"ΔΔCT, GHRHR",[2]; gene GHRHR,−4.040
same,"ΔΔCT, GOT1",[2]; gene GOT1,−0.084
same,"ΔΔCT, PER1",[2]; gene PER1,0.674
same,"ΔΔCT, RGS2",[2]; gene RGS2,−0.968
same,"ΔΔCT, SPSB1",[2]; gene SPSB1,−0.097
same,"ΔΔCT, TBL1XR1",[2]; gene TBL1XR1,−0.043
same,"ΔΔCT, TNF",[2]; gene TNF,−0.600
same,"ΔΔCT, VLDLR",[2]; gene VLDLR,−0.280
same,ΔΔCT,[3]; AMPD3 mRNA,−0.885
same,ΔΔCT,[3]; ASPH mRNA,0.476
same,ΔΔCT,[3]; BCL6 mRNA,0.263
same,ΔΔCT,[3]; FOSL2 mRNA,−1.274
same,ΔΔCT,[3]; TSC22D3 mRNA,0.189
same,ΔΔCT,[3]; ZFP36 mRNA,−0.036

# Source: patent US10456407B2, “Combination therapy for treating cancer” (Epizyme, Inc., priority 2015, dated 2019)
